Experiments:
[1] = test system: Pea plants (Pisum sativum L. cv. Laxton's Progress No. 9); experiment: Assay for in vivo herbicidal activity on pea plants; details: ten-day old pea plants
Experimental: Pea plants (Pisum sativum L. cv. Laxton's Progress No. 9) were sown in 46×62 cm flats of MetroMix 360 and grown for 10-12 days in a greenhouse (minimum night temperature of 30° C.) as described by Wang, P., Royer, M., and Houtz, R. L. Affinity purification of ribulose-1,5-bisphosphate carboxylase/oxygenase large subunit epsilon N-methyltransferase. Protein Expression and Purification 6:528-526 (1995). Ten-day old pea plants were treated with approximately 100-200 μl actinonin (final concentration. 2.5 mg/ml per plant in 0.1% Tween-20). Control plants were treated with 0.1% Tween-20. […] The changes were clearly visible within 48 hours after treatment with actinonin.

AtDEF2 = biological target: T1, AtDEF2 (Arabidopsis thaliana, UniProt Q9FUZ2); experiment: Continuous spectrophotometric peptide deformylase activity and inhibition assay (formyl-Met-Leu-p-nitroanilide, coupled with Aeromonas proteolytica aminopeptidase); assay type: biochemical
T1 construct: the entire putative protein and the ChloroP-predicted chloroplast-length protein; initiator Met from the NdeI site (N); made in house; host or cells: E. coli BL21(DE3)pLysS, pET23b, clone #4-D
T1 sequence (Q9FUZ2 57-273): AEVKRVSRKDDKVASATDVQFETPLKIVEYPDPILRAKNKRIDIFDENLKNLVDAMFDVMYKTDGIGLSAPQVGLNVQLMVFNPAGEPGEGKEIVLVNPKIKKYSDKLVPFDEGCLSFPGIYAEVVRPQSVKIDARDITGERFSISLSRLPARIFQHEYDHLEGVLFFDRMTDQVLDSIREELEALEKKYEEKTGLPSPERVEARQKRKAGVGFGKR
Experimental: Experiments were designed to detect deformylase activity from recombinant AtDEF2 using the assay as described by Wei and Pei, Analytical Biochemistry 250:29-34 (1997). Continuous spectrophotometric assays of peptide deformylase activity were carried out at a temperature of 20° C. Assays were performed in polystyrene or quartz cuvettes containing 50 mM Tris-HCl, pH 8.2, 1 mM ethylene diamine bis(β-aminoethyl ether-N,N′-tetraacetic acid ([…]), 5 mM MgCl2, 200 μM NiSO4 0-200 μM peptide substrate and 1.0 units of Aeromonas proteolytica aminopeptidase. […] The reactions were monitored continuously at 405 nm in a Shimadzu UV-201 PC scanning spectrophotometer, and the initial rates were calculated from the early part of the reaction progression curves (<60 s). Spectrophotometric detection and quantitation was performed of p-nitroaniline released from formyl-Met-Leu-p-nitroanilide substrate (BACHEM Cat. No. L2030; King of Prussia, Pa. 19406 USA) following sequential action of AtDEF2 and Aeromonas proteolytica aminopeptidase (Sigma Cat. No. A8200; St. Louis, Mo., 63118 USA).

inhibition of deformylase activity after preincubation (AtDEF2; 43.5 μg AtDEF2 preincubated 3 minutes with 3.2 μM actinonin, assay then initiated with substrate): Nearly complete inhibition | inhibition of AtDEF2 activity (actinonin included in assay, no preincubation) (AtDEF2; within 60 seconds, FIG. 8, 20° C.): significantly inhibited
SMILES: CCCCC[C@H](CC(=O)NO)C(=O)N[C@H](C(=O)N1CCC[C@H]1CO)C(C)C [actinonin]
time after treatment at which changes were clearly visible ([1]; 2.5 mg/ml actinonin in 0.1% Tween-20): ≤ 48 h | observable alterations in plant growth ([1]; approximately 100-200 μl actinonin, 2.5 mg/ml per plant in 0.1% Tween-20, foliar application): stunting and yellowing of pea plants
